Each structure is given as a SMILES string.

This data set can be described thus: Excretion of FDKP after pulmonary administration of Technosphere particles. Type of data set: in vivo. An excerpt:
Technosphere® refers to a diketopiperazine-based drug delivery system which can complex and stabilize peptides in small particles. Diketopiperazines, particularly fumaryl diketopiperazine (FDKP), self-assemble into microparticles with a mean diameter of about 2 microns. In the process it can entrap or complex with peptides, such as insulin, present in the solution during or after self-assembly. Once dried, these microparticles become a suitable composition for pulmonary delivery to the systemic circulation. When administered by the pulmonary route, Technosphere® particles dissolve in the pH neutral environment of the deep lung and facilitate the rapid and efficient absorption of the peptide into systemic circulation.

Turning to `O=C(O)/C=C/C(=O)NCCCCC1NC(=O)C(CCCCNC(=O)/C=C/C(=O)O)NC1=O` (stereo not shown) [FDKP, 3,6-di(fumaryl-4-aminobutyl)-2,5-diketopiperazine], the excretion result is “excreted un-metabolized in the urine within hours of administration”.

For the origin of these results see patent US9801925B2, “Potentiation of glucose elimination” (MannKind Corporation, priority 1999, dated 2017).
